{"source": "patent US20060189546A1", "about": "“Compounds for treating autoimmune and demyelinating diseases” (priority 2005, published 2006)", "key": {"IL-4": {"test_system": "IL-4", "assay": "Mediator release, IL-4 (Con A-stimulated PBML, sandwich ELISA)", "format": "cell-based", "settings": "Homo sapiens", "procedure": "(§1) In this experiment, test compound and/or vehicle were preincubated with human peripheral blood mononuclear leukocyte (PBML, 1×10^6/ml) in RPMI buffer pH 7.4 for 2 hours. Concanavalin A (Con A, 20 μg/ml) was then added to stimulate the cells overnight in 5% CO2 at 37° C. IL-4 and IL-10 cytokine levels in the conditioned medium were then quantified using a sandwich ELISA kit. Compounds were screened at 10, 1, 0.1, 0.01 and 0.001 μM."}, "IL-10": {"test_system": "IL-10", "assay": "Mediator release, IL-10 (Con A-stimulated PBML, sandwich ELISA)", "format": "cell-based", "settings": "Homo sapiens, IL-10 release", "procedure": "as §1"}, "B-lymphocyte cells": {"test_system": "B-lymphocyte cells", "assay": "Cell Proliferation, B-Cell + LPS ([3H]thymidine incorporation)", "format": "cell-based, balb/c mice", "settings": "Mus musculus, B-Cell + LPS", "procedure": "B-lymphocyte cells isolated from the spleen of balb/c mice weighing 17±1 g were used. Test compound and/or vehicle were incubated with the cells (1.5×10^6/ml) in the presence of 10 μg/ml lipopolysaccharide (LPS) in AIM-V medium pH 7.4 at 37° C. for 24 hours. [^3H]Thymidine (120 nM) was then added for an additional overnight incubation period. Thymidine incorporation was assessed by liquid scintillation counting.\n(§2) Test compound-induced suppression of cell proliferation by 50 percent or more (≧50%) relative to vehicle control response indicates significant inhibitory activity."}, "T-lymphocyte cells": {"test_system": "T-lymphocyte cells", "assay": "Cell Proliferation, T-Cell + Con A ([3H]thymidine incorporation)", "format": "cell-based, balb/c mice", "settings": "Mus musculus, T-Cell + Con A", "procedure": "T-lymphocyte cells isolated from thymus of balb/c mice weighing 17±1 g were used. Test compound and/or vehicle is incubated with the cells (4×10^6/ml) in the presence of 3 μg/mL Concanavalin A (Con A) in AIM-V medium pH 7.4 at 37° C. for 24 hours. [^3H]Thymidine (120 nM) was then added for an additional overnight incubation period. Thymidine incorporation was assessed by liquid scintillation counting.\nas §2"}, "[1]": {"test_system": "Experimental Autoimmune Encephalomyelitis (EAE)", "assay": "Acute EAE, daily dosing for 15 days (Example 5)", "format": "in vivo, guinea pigs", "settings": "Symadex 6 mg/kg, mitoxantrone 0.35 mg/kg", "procedure": "Accordingly, three randomized cohorts of guinea pigs with EAE induced by the method of Example 2, were treated, respectively, with 6 mg/kg of Symadex™ (full salt hydrate) and 0.35 mg/kg of mitoxantrone. Animals were treated daily, by intraperitoneal injection, for 15 days, starting on day 7 post immunization. Controls were treated with vehicle. We reasoned that 15 consecutive, 6 mg/kg doses of Symadex™ would represent a level of drug exposure that would be commensurate with the “20 mg/kg every 72 hours” regimen in Example 4 and consistent with a mid level exposure between the 20 mg/kg and the 40 mg/kg schedule given weekly, in Example 2. The mitoxantrone dose was selected to reflect a typical high dose given to rats or mice by daily dosing in the prior art, but allometrically scaled to the guinea pig."}, "[2]": {"test_system": "Collagen Antibody Induced Arthritis", "settings": "Lange et al., Annals of Rheumatoid Disease 64:599-605, 2005; cited from earlier work"}, "[3]": {"settings": "1 nM, read-out: % Growth Inhibition"}, "[4]": {"settings": "10 nM, read-out: % Growth Inhibition"}, "[5]": {"settings": "0.1 μM, read-out: % Growth Inhibition"}, "[6]": {"settings": "1 μM, read-out: % Growth Inhibition"}, "[7]": {"settings": "10 μM, read-out: % Growth Inhibition"}}, "data": [{"compound": "O=C1c2c(O)ccc(O)c2C(=O)c2c(NCCNCCO)ccc(NCCNCCO)c21", "note": "[Mitoxantrone, reference compound]", "values": [{"measurement": "% inhibition of IL-4 release at 0.001 µM", "setting": "IL-4; [3]", "value": 11, "unit": "%"}, {"measurement": "% inhibition of IL-4 release at 0.01 µM", "setting": "IL-4; [4]", "value": 13, "unit": "%"}, {"measurement": "% inhibition of IL-4 release at 0.1 µM", "setting": "IL-4; [5]", "value": 18, "unit": "%"}, {"measurement": "% inhibition of IL-4 release at 1 µM", "setting": "IL-4; [6]", "value": -4, "unit": "%"}, {"measurement": "% inhibition of IL-4 release at 10 µM", "setting": "IL-4; [7]", "value": 108, "unit": "%"}, {"measurement": "IC50", "setting": "IL-4; IL-4 release", "value": 2960, "unit": "nM"}, {"measurement": "IC50", "setting": "IL-10", "value": 759, "unit": "nM"}, {"measurement": "inhibition at 0.001 µM", "setting": "IL-10; [3]", "value": 2, "unit": "%"}, {"measurement": "inhibition at 0.01 µM", "setting": "IL-10; [4]", "value": 1, "unit": "%"}, {"measurement": "inhibition at 0.1 µM", "setting": "IL-10; [5]", "value": 5, "unit": "%"}, {"measurement": "inhibition at 1 µM", "setting": "IL-10; [6]", "value": 60, "unit": "%"}, {"measurement": "inhibition at 10 µM", "setting": "IL-10; [7]", "value": 102, "unit": "%"}, {"measurement": "IC50", "setting": "B-lymphocyte cells", "value": 7.31, "unit": "nM"}, {"measurement": "inhibition at 0.001 µM", "setting": "B-lymphocyte cells; [3]", "value": 18, "unit": "%"}, {"measurement": "inhibition at 0.01 µM", "setting": "B-lymphocyte cells; [4]", "value": 54, "unit": "%"}, {"measurement": "inhibition at 0.1 µM", "setting": "B-lymphocyte cells; [5]", "value": 93, "unit": "%"}, {"measurement": "inhibition at 1 µM", "setting": "B-lymphocyte cells; [6]", "value": 102, "unit": "%"}, {"measurement": "inhibition at 10 µM", "setting": "B-lymphocyte cells; [7]", "value": 102, "unit": "%"}, {"measurement": "IC50", "setting": "T-lymphocyte cells", "value": 32, "unit": "nM"}, {"measurement": "inhibition at 0.001 µM", "setting": "T-lymphocyte cells; [3]", "value": -1, "unit": "%"}, {"measurement": "inhibition at 0.01 µM", "setting": "T-lymphocyte cells; [4]", "value": 19, "unit": "%"}, {"measurement": "inhibition at 0.1 µM", "setting": "T-lymphocyte cells; [5]", "value": 80, "unit": "%"}, {"measurement": "inhibition at 1 µM", "setting": "T-lymphocyte cells; [6]", "value": 103, "unit": "%"}, {"measurement": "inhibition at 10 µM", "setting": "T-lymphocyte cells; [7]", "value": 103, "unit": "%"}, {"measurement": "clinical score (neurological impairment)", "setting": "[1]; daily i.p. for 15 days from day 7", "value": "the initial rise in neurological impairment is arrested"}, {"measurement": "weight gain", "setting": "[1]; daily i.p. for 15 days", "value": "impairs weight gain"}, {"measurement": "reduction of meningeal inflammation (M) pathology score", "setting": "[1]; necropsy after 15 daily doses", "value": "statistically significant reduction in meningeal inflammation"}, {"measurement": "reduction of perivascular cuffing (P), myelitis (E) and demyelination (D) pathology scores", "setting": "[1]; necropsy after 15 daily doses", "value": "statistically significant differences (p value<0.05) from control"}]}, {"compound": "CN(Cc1cnc2nc(N)nc(N)c2n1)c1ccc(C(=O)N[C@@H](CCC(=O)O)C(=O)O)cc1", "note": "[Methotrexate]", "values": [{"measurement": "benefit in antibody induced arthritis models", "setting": "[2]", "value": "diminishing benefit"}]}]}
